In one data set the test system is TNF-α. Nature of the data set: TNF-α level in the retina after ON injury (quantitative real-time RT-PCR). Type of data set: in vivo, mouse. The note with it: one day after ON injury; intravitreal Z-VAD (300 uM) and/or Nec-1 (400 uM). The protocol: (§1) Total RNA extraction, cDNA synthesis and PCR amplification have been performed as previously reported (Kayama et al., (2010) OPHTHALMIC RES 43:79-91). A real-time PCR assay was performed with Prism 7700 Sequence Detection System (Applied Biosystems, Foster City, Calif.). The primers are shown below in Table 1.
(§2) For relative comparison of each gene, the Ct value of real-time PCR data was analyzed with the ΔΔCt method and normalized to an endogenous control ([…].
To investigate whether TNF-α is involved in RGC cell death in mice subjected to optic nerve (ON) injury (induced by physical injury to the optic nerve), TNF-α level in the retina was measured using quantitative real-time RT-PCR. As depicted in FIG. 2A, at one day after ON injury, TNF-α mRNA levels increased almost 10- to 13-fold relative to non-injured mice.

The test system of the next data set is ROS. The experiment in a line: Protein carbonyl contents in retina after ON injury (ELISA). The format is in vivo, mouse. The conditions noted are these: one day after ON injury; compared with vehicle group. The method, then: It has been reported that RIP kinases control ROS generation during programmed necrosis (Cho et. al., (2009) CELL 137:1112-1123, Zhang et al., (2009) SCIENCE 325:332-336)). To investigate whether ROS play a roll in oxidative retinal damage after ON injury, protein level of carbonyl contents was analyzed using ELISA using the OxiSelect™ Protein Carbonyl ELISA Kit (Cell Biolabs, San Diego, Calif.).
To investigate the role of autophagy in RGC death after ON injury, we examined the effect of 3-methyladenine (3-MA) on RGCs death after ON injury. 3-MA inhibits autophagosome formation (Seglen and Gordon, (1982) PROC NATL ACAD SCI USA 79:1889-1892)). One day after ON injury, TUNEL assay was performed. […] In addition, the number of Brn3b positive cells and IPL thickness were also analyzed. […] To investigate whether ROS play a role in oxidative retinal damage after ON injury, protein level of carbonyl contents was analyzed using an ELISA kit (Cell Biolabs, San Diego, Calif.) according to the manufacturer's instructions. One day after ON injury, carbonyl contents decreased in the 3-MA treated group compared with untreated control (FIG. 10F).
Background: ELISA stands for enzyme-linked immunosorbent assay.

The subject of another data set is Atg5, 7 and 12. The experiment in a line: Atg5, Atg7 and Atg12 expression after ON injury (quantitative RT-PCR). Type of data set: in vivo, mouse. The conditions noted are these: one day after ON injury; compared with vehicle treatment. The protocol:
as §1, §2
To investigate whether autophagy influences RGC death after ON injury, expression of several genes critical for autophagosome formation including Atg5, 7 and 12 was measured by quantitative RT-PCR. […] In contrast, administration of ZVAD plus Nec-1, or Rip3 deficiency suppressed expression of Atg5, 7 and 12 transcripts (FIGS. 9A-9C).

A further data set has as its system LC3-II. The experiment in a line: LC3 protein level after ON injury (western blot). The format is in vivo, mouse. The conditions noted are these: one day after ON injury. The method, then:
For Western blot analysis, whole retinas were harvested and lysed for 30 min on ice in lysis buffer (50 mM Tris-HCl [pH 8], with 120 mM NaCl and 1% Nonidet P-40), supplemented with a mixture of proteinase inhibitors (Complete Mini; Roche Diagnostics, Basel, Switzerland). Thirty micrograms of protein per sample were separated in a 4-20% gradient sodium dodecyl sulfate-polyacrylamide gel (SDS-PAGE) (Invitrogen Corporation, Carlsbad, Calif., USA) electrophoresis and the proteins were electroblotted onto PVDF membranes. After 20 min incubation in blocking solution (Starting Block™ T20, Thermo Scientific, Waltham, Mass.), membranes were incubated with primary antibodies overnight at 4° C. Peroxidase-labeled secondary antibodies (Amersham Pharmacia Biotech, Piscataway, N.J., USA) were used and proteins were visualized with enhanced chemiluminescence technique (Amersham Pharmacia Biotech). Full list of primary antibodies and working concentrations are shown below in Table 2.
Protein levels of LC3, an autophagy marker, were also assessed by western blot analysis.

Data set [1] deals with retinal ganglion cell axons. Nature of the data set: Optic nerve crush model: axon regeneration (βIII-tubulin staining of longitudinal optic nerve sections). Type of data set: in vivo, mouse. The note with it: 14 days, intravitreal ZVAD 300 μM and/or Nec-1 4 mM. The method, then: Mice were subjected to optic nerve crush surgery. Specifically, animals were anesthetized with an intraperitoneal injection of ketamine (60-80 mg/kg: Phoenix Pharmaceutical, St. Joseph, Mo.) and xylazine (10-15 mg/kg: Bayer, Shawnee Mission, K A). Animals were positioned in a stereotaxic apparatus and a 1-1.5 cm incision was made in the skin above the right orbit. Under microscopic illumination, the lachrymal glands and extraocular muscles were resected to expose 3-4 mm of the optic nerve. The epineurium was slit open along the long axis, and the nerve was crushed 2 mm behind the eye with angled jeweler's forceps (Dumont #5) for 10 seconds, avoiding injury to the ophthalmic artery. Nerve injury was verified by the appearance of a clearing at the crush site, while the vascular integrity of the retina was evaluated by fundoscopic examination. Cases in which the vascular integrity of the retina was in question were excluded from the study. […]
Axon regeneration was assessed by obtaining longitudinal sections of the optic nerve and counting the number of axons at pre-specified distances from the injury site. […] Axons were counted manually in at least eight longitudinal sections per case at pre-specified distances from the injury site. The number of regenerating axons at various distances are determined as described previously (Leon et al., (2000) J NEUROSCI 20:4615-4626). […]

The conditions of data set [2]: studies on which the dose was selected; cited from earlier work.

Where a SMILES comes first, the peptide text is derived from it. The star is where a group is joined. Cbz = O=C(OCc1ccccc1)*; CH2F = FC*

On to `COC(=O)CC(NC(=O)C(C)NC(=O)C(NC(=O)OCc1ccccc1)C(C)C)C(=O)CF` (stereo not drawn) [Z-VAD, Benzyloxycarbonyl-Val-Ala-Asp(OMe)-fluoromethylketone] (Cbz-Val-Ala-Asp(OMe)-CH2F; configuration not given here), for which the “increase of TNF-α levels after ON injury” value with TNF-α is recorded as “did not affect”. Moreover, the “carbonyl contents (protein level, ELISA)” value with ROS is recorded as “dramatically increased”. Besides, the Atg12 expression entry in the data set with Atg5, 7 and 12 is “further increased”. Further, the “protein level of LC3-II” value in the data set on LC3-II is reported as “increased more than vehicle”. Moreover, the “axon regeneration (βIII-tubulin axon staining beyond injury site)” value in data set [1] is “minimal effects on axon regeneration”. The “half-life inside the eye” value in data set [2] was “around 6 hours”.
